Here are results for two compounds from US11591365B2, “BCL9 peptides and variants thereof” (WntRx Pharmaceuticals Inc., priority 2017, dated 2023).

For one assay, the system named is LEF-TCF-bla HCT116 cells. Briefly: Wnt reporter assay: Wnt/Beta-Catenin-LEF-TCF-bla HCT116 inhibitor screen, constitutively activated. The format is cell-based. The following applies: 5 hours incubation with compound. From the text: In various embodiments, a polypeptide described herein inhibits binding of BCL9 to β-catenin when assessed in a Wnt transcription assay. In some embodiments, the Wnt transcription assay is a cell-based assay. In some embodiments, the cell-based Wnt transcription assay is a GeneBLAzer® beta-lactamase (bla) reporter assay. Various cell lines, transformed cell lines or primary cells derived from a healthy subject or subject suffering from a disease can be used in this assay. A cell line known to be dependent on canonical Wnt/β-catenin signaling for its survival may also be used. In some embodiments, CellSensor™ LEF/TCF-bla HCT-116 cells are used in this reporter assay. These cells contain a beta-lactamase (BLA) reporter gene under the control of a 0-catenin/LEF/TCF response element stably integrated into HCT-116 cells. As the cells constitutively express beta-lactamase, adding a polypeptide that inhibits binding of BCL9 to β-catenin in this assay leads to reduced production of beta-lactamase. The efficiency of the polypeptide in suppressing Wnt transcription can therefore be quantitatively calculated in this assay. In some embodiments, a polypeptide described herein suppresses the Wnt transcription as measured in a GeneBLAzer® beta-lactamase (bla) reporter assay, which is indicative of the ability of the polypeptide to inhibit binding of BCL9 to β-catenin.
Wnt/Beta-Catenin-LEF-TCF-bla HCT116-Inhibitor Screen, Constitutively Activated. LEF-TCF-bla HCT116 cells are thawed and prepared as described above for the Activator Screen. 32 μL of cell suspension is added to each well of a 384-well Poly-D-Lysine assay plate. Cells in Assay Media are incubated for 16-24 hours in the plate at 37° C./5% CO2 in a humidified incubator. 4 μL of a 10× serial dilution of ICG-001 (control inhibitor starting concentration, 25,000 nM) or compounds are added to appropriate wells of the plate. 4 μL of Assay Media is added to all wells to bring the final assay volume to 40 μL. The plate is incubated for 5 hours at 37° C./5% CO2 in a humidified incubator. 8 μL of 1 μM Substrate Loading Solution is added to each well and the plate is incubated for 2 hours at room temperature. The plate is read on a fluorescence plate reader.
In general terms: Reporter assays use an easily measured gene product as a stand-in for the process of interest.

The target of assay [1] is T1, β-catenin (Homo sapiens, UniProt P35222). Briefly: kd(1/s). From the text: (§1) Table printed on a drawing sheet, FIG. 1
Head of the field: kd(1/s)
(§2) First copying reader's note: Kinetic binding constants printed under a sensorgram plot (Biacore assay of β-catenin binding according to the description).

The target in assay [2] is T1, β-catenin. Briefly: KD(nM).
Description: as §1
Head of the field: KD(nM)
as §2

Assay [3] has as its target T1, β-catenin. Briefly: ka(1/Ms).
Description: as §1
Head of the field: ka(1/Ms)
as §2

The test system of the next assay is Colo320DM. Briefly: Colo320DM cell viability. The format is cell-based, human. From the text:
In some embodiments, a polypeptide described herein inhibits binding of BLC9 to β-catenin when assessed in a cell-viability assay. In some embodiments, the cell-viability assay is a CellTiterGlo luminescent assay, wherein the viability of cells is quantitatively measured. Various cell lines, transformed cell lines or primary cells derived from a healthy subject or subject suffering from a disease can be used in this assay.

The structures appear in SMILES notation. Where a SMILES comes first, the peptide text is derived from it. Bridges are numbered along the chain shown (N, C = ends). [ ]: non-standard residue; d: D form. 2Nal = N[C@@H](Cc1ccc2ccccc2c1)C(=O)O; Cha = N[C@@H](CC1CCCCC1)C(=O)O; S5 = C=CCCC[C@](C)(N)C(=O)O

T1 sequence (P35222 2-781 limits assumed): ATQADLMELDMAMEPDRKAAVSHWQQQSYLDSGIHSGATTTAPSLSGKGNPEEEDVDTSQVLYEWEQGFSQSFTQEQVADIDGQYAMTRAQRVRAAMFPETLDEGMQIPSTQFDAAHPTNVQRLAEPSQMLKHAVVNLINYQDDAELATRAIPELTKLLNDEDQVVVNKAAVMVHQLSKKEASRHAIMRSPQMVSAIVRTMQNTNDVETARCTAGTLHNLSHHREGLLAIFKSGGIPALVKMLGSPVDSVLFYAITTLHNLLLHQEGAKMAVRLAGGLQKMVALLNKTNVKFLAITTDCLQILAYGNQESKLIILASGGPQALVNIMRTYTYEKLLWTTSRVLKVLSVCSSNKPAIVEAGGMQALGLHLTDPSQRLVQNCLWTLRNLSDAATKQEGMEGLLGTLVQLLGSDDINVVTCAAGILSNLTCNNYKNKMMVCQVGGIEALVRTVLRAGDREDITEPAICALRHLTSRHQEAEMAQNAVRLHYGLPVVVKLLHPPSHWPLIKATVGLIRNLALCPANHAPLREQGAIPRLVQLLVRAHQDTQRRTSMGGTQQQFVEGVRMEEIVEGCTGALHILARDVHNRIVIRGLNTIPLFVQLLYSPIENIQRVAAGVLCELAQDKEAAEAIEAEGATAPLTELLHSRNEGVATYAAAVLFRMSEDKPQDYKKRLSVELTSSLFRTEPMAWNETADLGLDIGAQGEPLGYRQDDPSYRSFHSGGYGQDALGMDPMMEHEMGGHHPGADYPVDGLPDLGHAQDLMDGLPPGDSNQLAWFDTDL

A word on the IC50: it is the concentration at which inhibition is half-maximal. As usually defined, the Kd is a measure of binding affinity in units of concentration. Take `CC[C@H](C)[C@@H]1NC(=O)[C@@](C)(NC(=O)[C@H](CCCNC(=N)N)NC(=O)[C@H](CC(C)C)NC(=O)[C@@H](NC(=O)[C@H](CCC(N)=O)NC(=O)[C@H](CC(C)C)NC(=O)[C@H](CO)NC(=O)[C@H](CCCNC(=N)N)NC(=O)[C@H](CCC(N)=O)NC(=O)[C@H](CCCNC(=N)N)NC(=O)[C@H](Cc2c[nH]cn2)NC(C)=O)[C@@H](C)O)CCCC=CCCC[C@@](C)(C(=O)N[C@@H](CC2CCC2)C(=O)N[C@@H](Cc2ccc3ccccc3c2)C(N)=O)NC(=O)[C@H](CCCNC(=N)N)NC(=O)[C@H](CCC(N)=O)NC1=O` [SEQ ID NO: 147, HRQRSLQTLRXIQRX(CBA)(2-Nal)]: the figures for the 50% inhibitory concentration (IC50) with LEF-TCF-bla HCT116 cells and in the assay with Colo320DM were 1.54 µM and 2.53 µM, respectively. For the same compound, the “kd” value on β-catenin [1] came out at 0.009538 s⁻¹. Further, binding at β-catenin [2] was put at a Kd of 0.0285 µM. Besides, the “ka(1/Ms)” value on β-catenin [3] is given as 3.348E + 5 1/Ms.

In the case of `CC[C@H](C)[C@@H]1NC(=O)[C@@](C)(NC(=O)[C@H](CCCNC(=N)N)NC(=O)[C@H](CC(C)C)NC(=O)[C@@H](NC(=O)[C@H](CCC(N)=O)NC(=O)[C@H](CC(C)C)NC(=O)[C@H](CO)NC(=O)[C@H](CCCNC(=N)N)NC(=O)[C@H](CCC(N)=O)NC(=O)[C@H](CCCNC(=N)N)NC(=O)[C@H](Cc2c[nH]cn2)NC(C)=O)[C@@H](C)O)CCCC=CCCC[C@@](C)(C(=O)N[C@@H](CC2CCCCC2)C(=O)N[C@@H](Cc2ccc3ccccc3c2)C(N)=O)NC(=O)[C@H](CCCNC(=N)N)NC(=O)[C@H](CCC(N)=O)NC1=O` [SEQ ID NO: 180, HRQRSLQTLRXIQRX(Cha)(2-Nal)] (Ac-HRQRSLQTLR[S5]IQR[S5][Cha][2Nal]-NH2; staple 11-15), the concentration for half-maximal inhibition (IC50) in the assay on LEF-TCF-bla HCT116 cells was found to be 2.21 µM; in the assay on Colo320DM, 1.88 µM.
